Test results as given in patent publication US4593090A, “Novel nitrosourea compounds, method for preparing same, and pharmaceutical composition containing same” (Gogo Kimura, priority 1981, dated 1986).
Like-named read-outs stand apart in the source and are kept apart here.

Tests used:
[1] = system: Leukemia L1210; assay: Activity against Leukemia L1210, intraperitoneal, increase in life span of mice; format: in vivo, female mice (BDF1 family); details: for ED (maximum ILS) / ED30: Mus musculus, L1210, ip, ip once a day for 5 successive days; for ED (maximum ILS): daily dosage giving maximum increase of life span, read-out: O.D. (optimum dosage); for ED30: daily dosage increasing average survival days by 30%, read-out: ILS30; for Survivors after 60 days / Max. ILS % / Therapeutic ratio TR: ip; for Survivors after 60 days: 6-membered group; for Max. ILS %: 60-day observation, versus control; for Therapeutic ratio TR: O.D./ILS30
How it was run: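 Beginning 24 hours after intraperitoneal implantation of 1×10^5 leukemia cells, six-mouse groups of female BDF1 mice receive the test compound once daily for five consecutive days by the ip or oral route. Survival is recorded up to 60 days and compared with untreated controls.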

[2] = system: Leukemia L1210; assay: Activity against Leukemia L1210, oral, increase in life span of mice; format: in vivo, female mice (BDF1 family); details: for ED (maximum ILS) / ED30: Mus musculus, L1210, oral once a day for 5 successive days; for ED (maximum ILS): daily dosage giving maximum increase of life span, read-out: O.D. (optimum dosage); for ED30: daily dosage increasing average survival days by 30%, read-out: ILS30; for Survivors after 60 days / Max. ILS % / Therapeutic ratio TR: oral; for Survivors after 60 days: 6-membered group; for Max. ILS %: 60-day observation, versus control; for Therapeutic ratio TR: O.D./ILS30
Experimental: Tests were conducted in accordance with the method for measuring antitumor activity of National Cancer Center Tokyo (A, Hoshi et al, Farumashia 9 464 (1973)). Test compounds were each intraperitoneally (referred to as ip) or orally (referred to as op) administered once a day for 5 successive days to a 6-membered group of femal mice (BDF1 family, each weighing 20 to 23 g) 24 hours after 1×10^5 cells of Leukemia L1210 have been implantated into the abdominal cavities of the mice, and the effect was evaluated by comparing the survival days of treated groups with those of an untreated group of mice (control group) in 60-day observation. An increase percentage of life span (ILS%) was calculated from said average survival days compared with those of the control group. Further, therapeutic ratio (O.D./ILD30, referred to as T.R.) of each tested compound was calculated from the daily dosage of the compound necessary to increase said average survival days by 30% as compared with the control group (this dosage is referred to as ILS 30) and the daily dosage giving a maximum increase of life span to mice implantated with L1210 cells, namely an optimum dosage (referred to as O.D.). The results of five successive days intraperitoneal administrations of test compounds were shown in Tables I to III, and those of five successive oral administrations in Table IV.

[3] = Acute toxicity (LD50, Behrens-Karber method); format: in vivo, ICR mice; details: mouse, in vivo, ip, mortality during 30 days
Experimental: Test compounds, dissolved or suspended in 0.5% aqueous CMC, were each intraperitoneally administered to ICR mice in a dose of 0.1 ml per 10 g body weight. LD50 (mg/kg) value of each test compound was calculated from the mortality of mice during 30 days by the Behrens-Karber method.

[4] = system: Ehrlich acites carcinoma; assay: Growth-inhibiting effect against Ehrlich acites carcinoma; format: in vivo, male mice; details: Mus musculus, Ehrlich, 120 h, 5 days; for response vs control in vivo at 25 mg/kg: 25 mg/kg/day ip; for response vs control in vivo at 100 mg/kg: 100 mg/kg/day ip
Experimental: Ehrlich acites carcinoma (1×10^7 cells) was implantated into the abdominal cavities of a 6-membered group of male mice. Test compounds (solutions or suspensions in 1% Nikohl HCO-60) were each intraperioneally administered once a day 5 successive days to the mice 24 hrs. after the implantation. Total packed cell volumes [TPCV, namely, total packed volumes of Acites carcinoma] were determined 7 days after the implantation to calculate growth ratio of tumor [T/C%; T: packed volume of Acites carcinoma in treated groups, C: packed volume of Acites carcinoma in an untreated group]. Acitivity is represented by - when T/C% is 100-66, by + when T/C% 65-41, by ++ when T/C% 40-11, and by +++ when T/C% 10-0.

SMILES | ED (maximum ILS) [1] [mg/kg] | ED30 [1] [mg/kg] | Survivors after 60 days [1] | Max. ILS % [1] [%] | Therapeutic ratio TR [1] | ED (maximum ILS) [2] [mg/kg] | ED30 [2] [mg/kg] | Survivors after 60 days [2] | Max. ILS % [2] [%] | Therapeutic ratio TR [2] | LD50 at 720 h [3] [mg/kg] | response vs control in vivo at 25 mg/kg ([4]; read-out: Activity) [%] | response vs control in vivo at 25 mg/kg ([4]; read-out: T/C %) [%] | response vs control in vivo at 100 mg/kg ([4]; read-out: Activity) [%] | response vs control in vivo at 100 mg/kg ([4]; read-out: T/C %) [%]
COCCCO[C@H]1O[C@H](CN(C(=O)N(CCCl)N=O)C2CCCCC2)[C@@H](O)[C@H](O)[C@H]1O [Compound 174, 3-cyclohexyl-3-(3-methoxy-n-propyl α-D-glucopyranose-6-yl)-1-(2-chloroethyl)-1-nitrosourea] | 180 | 2.78 | 6/6 | > 700 | 64.8 | 230 | 9.66 | 5/6 | > 620 | 23.8 | 610 |  |  |  | 
COCCCO[C@@H]1O[C@H](CN(CC(C)C)C(=O)N(CCCl)N=O)[C@@H](O)[C@H]1O [Compound 167, 3-isobutyl-3-(3-methoxy-n-propyl β-D-ribofuranose-5-yl)-1-(2-chloroethyl)-1-nitrosourea] | 160 | 3.17 | 4/6 | > 430 | 50.5 | 180 | 12 | 4/6 | > 450 | 15.0 | 510 |  |  |  | 
CCOCCN(C(=O)N(CCCl)N=O)C1C(OC2CCCCC2)OC(CO)C(O)C1O [Compound 64, 3-(2-ethoxyethyl)-3-(cyclohexyl α-D-glucopyranose-2-yl)-1-(2-chloroethyl)-1-nitrosourea] | 200 | 4.76 | 4/6 | > 450 | 42.0 | 240 | 13.2 | 4/6 | > 460 | 18.2 | 650 |  |  |  | 
COC(C)CCO[C@H]1O[C@H](CN(C(=O)N(CCCl)N=O)C(C)(C)C)[C@@H](O)[C@H](O)[C@H]1O (stereo partly drawn) [Compound 198, 3-tert-butyl-3-(3-methoxy-n-butyl α-D-glucopyranose-6-yl)-1-(2-chloroethyl)-1-ntirosourea] | 180 | 2.76 | 6/6 | > 700 | 65.3 | 220 | 9.69 | 5/6 | > 640 | 22.7 | 570 |  |  |  | 
O=NN(CCCl)C(=O)N[C@H]1C(O)O[C@H](CO)[C@@H](O)[C@@H]1O (some centres unmarked) [DCNU, reference compound] | 6.2 | 0.7 | 5/6 | > 625 | 8.9 | 100 |  | 0/6 | 20 |  | 39 |  |  |  | 
COCC(C)N(C[C@H]1O[C@H](OC2CCCCC2)[C@@H](O)[C@@H](O)[C@H]1O)C(=O)N(CCCl)N=O (stereo partly drawn) [Compound 145, 3-(1-methyl-2-methoxyethyl)-3-(cyclohexyl α-D-talopyranose-6-yl)-1-(2-chloroethyl)-1-nitrosourea] | 170 | 2.91 | 6/6 | > 700 | 58.4 | 200 | 10.9 | 4/6 | > 450 | 18.3 | 580 |  |  |  | 
COCC(C)N(C(=O)N(CCCl)N=O)C1C(CO)OC(OCC(C)C)C(O)C1O [Compound 94, 3-(1-methyl-2-methoxyethyl)-3-(isobutyl α-D-glucopyranose-4-yl)-1-(2-chloroethyl)-1-nitrosourea] | 160 | 4.43 | 3/6 | > 360 | 36.1 |  |  |  |  |  | 520 | 0 to 10 | 0 | 0 to 10 | 0
